Experiment [1] deals with T1, human progesterone receptor A (Homo sapiens, UniProt P06401).
T1 construct: expressed in transfected cells; host or cells: SK-N-MC human neuroblastoma cells, stably transfected with pRChPR-A-neo and pMMTV-LUC
T1 sequence (P06401 1-769 isoform P06401-2): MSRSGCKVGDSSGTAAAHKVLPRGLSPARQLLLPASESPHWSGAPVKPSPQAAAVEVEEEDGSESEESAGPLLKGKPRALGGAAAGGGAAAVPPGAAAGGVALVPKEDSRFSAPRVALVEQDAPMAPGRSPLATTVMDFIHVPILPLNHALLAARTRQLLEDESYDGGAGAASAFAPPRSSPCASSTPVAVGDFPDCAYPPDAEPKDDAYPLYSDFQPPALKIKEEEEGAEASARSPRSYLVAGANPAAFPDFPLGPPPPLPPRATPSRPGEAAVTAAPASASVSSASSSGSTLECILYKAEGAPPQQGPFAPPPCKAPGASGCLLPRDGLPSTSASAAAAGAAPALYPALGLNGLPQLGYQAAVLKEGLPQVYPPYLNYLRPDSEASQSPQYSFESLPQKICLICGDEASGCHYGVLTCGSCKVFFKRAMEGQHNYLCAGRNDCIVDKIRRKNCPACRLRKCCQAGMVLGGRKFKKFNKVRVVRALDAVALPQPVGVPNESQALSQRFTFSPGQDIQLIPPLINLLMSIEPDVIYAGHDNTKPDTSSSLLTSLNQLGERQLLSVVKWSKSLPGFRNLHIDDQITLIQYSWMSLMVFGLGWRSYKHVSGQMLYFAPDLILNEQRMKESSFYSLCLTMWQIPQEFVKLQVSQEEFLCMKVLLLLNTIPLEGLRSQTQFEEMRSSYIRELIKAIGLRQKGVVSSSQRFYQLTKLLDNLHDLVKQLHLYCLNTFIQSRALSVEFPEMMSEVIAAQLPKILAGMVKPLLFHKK
Kind of experiment: Progesterone receptor-antagonistic action in stably transfected SK-N-MC cells, PR-A, MMTV-LUC reporter. Type of experiment: cell-based. Particulars: read-out: IC50 PR-A. The gist of the method: (§1)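 SK-N-MC neuroblastoma cells stably expressing human PR-A or PR-B plus MMTV-LUC reporter, treated 24 h with compound (0.01 nmol/l upward). Antagonism measured against 0.1 nmol/l promegestone; luciferase in lysates as RLU, given as % efficacy and IC50 (agonism as EC50).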

Experiment [2] deals with T2, human progesterone receptor B (Homo sapiens, UniProt P06401).
T2 construct: expressed in transfected cells; host or cells: SK-N-MC human neuroblastoma cells, stably transfected with pRChPR-B-neo and pMMTV-LUC
T2 sequence (P06401 1-933): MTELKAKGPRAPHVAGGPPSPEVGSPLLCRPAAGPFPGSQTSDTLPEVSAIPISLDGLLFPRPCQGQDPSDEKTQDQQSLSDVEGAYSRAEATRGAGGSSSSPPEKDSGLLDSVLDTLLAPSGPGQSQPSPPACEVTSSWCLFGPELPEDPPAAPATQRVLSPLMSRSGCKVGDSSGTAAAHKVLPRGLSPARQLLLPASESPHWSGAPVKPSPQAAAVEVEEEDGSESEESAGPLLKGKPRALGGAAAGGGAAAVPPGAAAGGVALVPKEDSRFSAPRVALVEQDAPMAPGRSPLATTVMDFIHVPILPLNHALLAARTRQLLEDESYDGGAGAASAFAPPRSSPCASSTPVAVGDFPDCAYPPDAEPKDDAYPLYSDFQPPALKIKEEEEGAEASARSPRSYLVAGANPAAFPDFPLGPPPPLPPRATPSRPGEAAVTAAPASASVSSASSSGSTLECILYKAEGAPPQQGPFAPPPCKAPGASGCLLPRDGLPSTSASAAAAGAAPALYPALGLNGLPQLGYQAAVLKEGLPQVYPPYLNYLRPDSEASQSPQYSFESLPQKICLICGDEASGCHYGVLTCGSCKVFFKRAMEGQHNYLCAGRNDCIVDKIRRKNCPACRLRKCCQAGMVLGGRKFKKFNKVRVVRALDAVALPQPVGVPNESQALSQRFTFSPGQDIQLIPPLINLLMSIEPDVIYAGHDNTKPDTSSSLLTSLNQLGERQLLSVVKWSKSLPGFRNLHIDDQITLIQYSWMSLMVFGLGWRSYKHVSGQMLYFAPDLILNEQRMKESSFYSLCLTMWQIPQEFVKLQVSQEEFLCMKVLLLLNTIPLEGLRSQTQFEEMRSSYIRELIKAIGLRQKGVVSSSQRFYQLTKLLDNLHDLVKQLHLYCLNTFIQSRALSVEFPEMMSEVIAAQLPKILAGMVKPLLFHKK
Kind of experiment: Progesterone receptor-antagonistic action in stably transfected SK-N-MC cells, PR-B, MMTV-LUC reporter. Type of experiment: cell-based. Particulars: read-out: IC50 PR-B. The method in brief: as §1

On to `C[C@]12C[C@H](c3ccc(C#CC=NOCc4ccc(Cl)c(Cl)c4)cc3)C3=C4CCC(=O)C=C4CCC3C1CC[C@@]2(O)C(F)(F)C(F)(F)F` (mixture of isomers) [Example 27, (E/Z)-[4-((8S,11R,13S,14S,17S)-17-hydroxy-13-methyl-3-oxo-17-pentafluoroethyl-2,3,6,7,8,11,12,13,14,15,16,17-dodecahydro-1H-cyclopenta[a]phenanthren-1′-yl)phenyl]propynal O-(3,4-dichlorobenzyl) oxime], for which the IC50 (as a rule, the concentration needed to halve the response being measured) worked out at 0.97 nM in experiment [1] and 2 nM in experiment [2].

With `C[C@]12C[C@H](c3ccc(C#CCNC(=O)NCc4ccccc4)cc3)C3=C4CCC(=O)C=C4CCC3C1CC[C@@]2(O)C(F)(F)C(F)(F)F` (stereo partly drawn) [Example 39, 1-benzyl-3-{3-[4-((8S,11R,13S,14S,17S)-17-hydroxy-13-methyl-3-oxo-17-pentafluoroethyl-2,3,6,7,8,11,12,13,14,15,16,17-dodecahydro-1H-cyclopenta[a]phenanthren-1′-yl)phenyl]prop-2-ynyl}urea], the IC50 in experiment [1] and in experiment [2] was 0.1 nM each time.

For `C[C@]12C[C@H](c3ccc(C#CCOCc4nnn[nH]4)cc3)C3=C4CCC(=O)C=C4CC[C@H]3[C@@H]1CC[C@@]2(O)C(F)(F)C(F)(F)F` [Example 18, (8S,11R,13S,14S,17S)-17-hydroxy-13-methyl-17-pentafluoroethyl-11-{4-[3-(1H-tetrazol-5-ylmethoxy)prop-1-yn-1-yl]phenyl}-1,2,6,7,8,11,12,13,14,15,16,17-dodecahydrocyclopenta[a]phenanthren-3-one], the figures for the IC50 in experiment [1] and in experiment [2] were 8 nM and 5 nM, respectively.

As to `CCNC(=O)OCC#Cc1ccc([C@H]2C[C@@]3(C)C(CC[C@@]3(O)C(F)(F)C(F)(F)F)C3CCC4=CC(=O)CCC4=C32)cc1` (stereo partly drawn) [Example 45, ethylcarbamic acid 3-[4-((8S,11R,13S,14S,17S)-17-hydroxy-13-methyl-3-oxo-17-pentafluoroethyl-2,3,6,7,8,11,12,13,14,15,16,17-dodecahydro-1H-cyclopenta[a]phenanthren-1′-yl)phenyl]prop-2-ynyl ester], the IC50 in experiment [1] and in experiment [2] was 0.01 nM in each case.

As to `C=CCNC(=O)OCC#Cc1ccc([C@H]2C[C@@]3(C)C(CC[C@@]3(O)C(F)(F)C(F)(F)F)C3CCC4=CC(=O)CCC4=C32)cc1` (stereo partly drawn) [Example 44, allylcarbamic acid 3-[4-((8S,11R,13S,14S,17S)-17-hydroxy-13-methyl-3-oxo-17-pentafluoroethyl-2,3,6,7,8,11,12,13,14,15,16,17-dodecahydro-1H-cyclopenta[a]phenanthren-1′-yl)phenyl]prop-2-ynyl ester], the IC50 in experiment [1] and in experiment [2] was 0.01 nM each time.

For `C[C@]12C[C@H](c3ccc(C#C/C=N\OCc4ccccc4)cc3)C3=C4CCC(=O)C=C4CCC3C1CC[C@@]2(O)C(F)(F)C(F)(F)F` (stereo partly drawn) [Example 24B, (Z)-[4-((8S,11R,13S,14S,17S)-17-hydroxy-13-methyl-3-oxo-17-pentafluoroethyl-2,3,6,7,8,11,12,13,14,15,16,17-dodecahydro-1H-cyclopenta[a]phenanthren-1′-yl)phenyl]propynal O-benzyl oxime], the IC50 in experiment [1] and in experiment [2] was 0.1 nM throughout.

In the case of `Cc1ccc(NC(=O)NCC#Cc2ccc([C@H]3C[C@@]4(C)[C@@H](CC[C@@]4(O)C(F)(F)C(F)(F)F)[C@@H]4CCC5=CC(=O)CCC5=C43)cc2)cc1` [Example 38, 1-{3-[4-((8S,11R,13S,14S,17S)-17-hydroxy-13-methyl-3-oxo-17-pentafluoroethyl-2,3,6,7,8,11,12,13,14,15,16,17-dodecahydro-1H-cyclopenta[a]phenanthren-11-yl)phenyl]prop-2-ynyl}-3-(4-methylphenyl)urea], the half-maximal inhibitory concentration (IC50) stood at 0.2 nM in experiment [1] and 0.3 nM in experiment [2].

Turning to `C[C@]12C[C@H](c3ccc(C#CCOC(=O)Nc4ccccc4)cc3)C3=C4CCC(=O)C=C4CCC3C1CC[C@@]2(O)C(F)(F)C(F)(F)F` (stereo partly drawn) [Example 46, phenylcarbamic acid 3-[4-((8S,11R,13S,14S,17S)-17-hydroxy-13-methyl-3-oxo-17-pentafluoroethyl-2,3,6,7,8,11,12,13,14,15,16,17-dodecahydro-1H-cyclopenta[a]phenanthren-1′-yl)phenyl]prop-2-ynyl ester], the half-inhibitory concentration (IC50) in experiment [1] and in experiment [2] was 0.01 nM in each case.

With `Cc1ccc(NC(=O)OCC#Cc2ccc([C@H]3C[C@@]4(C)C(CC[C@@]4(O)C(F)(F)C(F)(F)F)C4CCC5=CC(=O)CCC5=C43)cc2)cc1` (stereo partly drawn) [Example 47, 4-methylphenylcarbamic acid 3-[4-((8S,11R,13S,14S,17S)-17-hydroxy-13-methyl-3-oxo-17-pentafluoroethyl-2,3,6,7,8,11,12,13,14,15,16,17-dodecahydro-1H-cyclopenta[a]phenanthren-1′-yl)phenyl]prop-2-ynyl ester], the IC50 in experiment [1] and in experiment [2] was 0.01 nM in each case.

For the molecule `C[C@]12C[C@H](c3ccc(C#CCOC(=O)Nc4cccnc4)cc3)C3=C4CCC(=O)C=C4CC[C@H]3[C@@H]1CC[C@@]2(O)C(F)(F)C(F)(F)F` [Example 57, 3-pyridylcarbamic acid 3-[4-((8S,11R,13S,14S,17S)-17-hydroxy-13-methyl-3-oxo-17-pentafluoroethyl-2,3,6,7,8,11,12,13,14,15,16,17-dodecahydro-1H-cyclopenta[a]phenanthren-1′-yl)phenyl]prop-2-ynyl ester], the IC50 in experiment [1] is 0.01 nM; in experiment [2], 0.08 nM.

With `CCOC(=O)/C=C/C#Cc1ccc([C@H]2C[C@@]3(C)C(CC[C@@]3(O)C(F)(F)C(F)(F)F)C3CCC4=CC(=O)CCC4=C32)cc1` (stereo partly drawn) [Example 6, (E)-5-[4-((8S,11R,13S,14S,17S)-17-hydroxy-13-methyl-3-oxo-17-pentafluoroethyl-2,3,6,7,8,11,12,13,14,15,16,17-dodecahydro-1H-cyclopenta[a]phenanthren-1′-yl)phenyl]pent-2-en-4-ynoic acid ethyl ester], the concentration for half-maximal inhibition (IC50) in experiment [1] was determined as 13 nM; in experiment [2], 12 nM.
